# Data from PMC5551389 (Nature, 2016).
# Key:
# RSV A2 = experiment: microbe, parasite or virus in culture; format: cell-based; conditions: human respiratory syncytial virus
# CHIV = experiment: microbe, parasite or virus in culture; format: cell-based; conditions: Chikungunya virus, U2OS
# HIV-1 = experiment: microbe, parasite or virus in culture; format: cell-based, human immunodeficiency virus type 1
# [1] = tested on: human monocyte-derived macrophages
compound,measurement,setting,value
CCC(CC)COC(=O)[C@H](C)N[P@](=O)(OC[C@H]1O[C@@](C#N)(c2ccc3c(N)ncnn23)[C@H](O)[C@@H]1O)Oc1ccccc1 [GS-5734],EC50,"RSV A2; HEp-2, read-out: Antiviral activity EC50",0.019 µM
same,EC90,"RSV A2; HEp-2, read-out: Antiviral activity EC90",0.051 µM
same,EC50,CHIV; read-out: Antiviral activity EC50,> 20 µM
same,EC90,CHIV; read-out: Antiviral activity EC90,> 20 µM
same,EC50,"HIV-1; Human immunodeficiency virus 1, read-out: Antiviral activity EC50",> 20 µM
same,EC90,"HIV-1; Human immunodeficiency virus 1, read-out: Antiviral activity EC90",> 20 µM
same,"Intracellular NTP levels, fold higher than with Nuc",[1],up to 30 fold
